Data set [1] deals with pH2AX induction in HCT116 ATM-/- multicellular tumour spheroids. Kind of data set: Prodrug Radiation Sensitization in Multicellular Tumour Spheroids, inhibition of pH2AX induction following radiation. The data set is classed as cell-based. The settings on record: Homo sapiens, HCT-116, 20 Gy. The protocol:
Prodrug compounds were assayed to determine their potency in 3D multicellular spheroids in media maintained under 20% vs 5% oxygen. Multicellular tumour spheroids were grown to approximately 0.5 mm in diameter and irradiated with 20 Gy in combination with inhibitor test compounds to determine their potency using HCT 116 and FaDu cell lines. Experiments were carried out in 96 well plates containing 0.7 mls of MEM media containing 10% FBS and 10 mM glucose under 5% CO2 at 37° C. Following dilution of compounds 1:1000 from DMSO stocks, compounds were serially diluted from 10 μM down to 3.5 nM and 5-10 spheroids added. 96 well plates were constantly stirred to avoid spheroids settling during the course of the experiment. Endpoints were pDNA-PK (ser 2056) or pH2AX (ser 139) status in spheroid cryosections taken 1 or 2 hours following radiation and fixed immediately in formalin. Using tumour cell lines deficient in ATM improved the assay signal to noise and gH2AX readout. Using this assay prodrug activity could be compared in the more oxygenated outer spheroid layers versus less oxygenated hypoxic central cell layers.

Data set [2] has as its system FaDu cell line. Kind of data set: Prodrug Activation in Hypoxic Stirred Tumour Cell Suspensions. Particulars: 10 μM, 4 hours.
The target in data set [3] is T1, DNA-PK phosphorylation at Serine 2056 (Homo sapiens, UniProt P78527).
T1 construct: FaDu cells were purchased from ATCC; host or cells: FaDu
Kind of data set: Cellular Assay for Inhibition of DNA-PK Phosphorylation at Serine 2056 in FaDu cells (sandwich ELISA, neocarzinostatin). The data set is classed as cell-based. Particulars: pSer2056 DNA-PK, Table 3. How it is done: FaDu cells were purchased from ATCC and maintained in MEM alpha medium (Life Technologies, cat. no. 12561) supplemented with 10% fetal bovine serum, and 1% GlutaMAX at 37° C. supplemented with 5% CO2. 50,000 cells were seeded to each well of a 96-well cell culture plate in 50 μL of culture medium and incubated for 16-24 hours. Three-fold serially diluted compounds were prepared in DMSO. Culture media was used to prepare compound treatments to 0.3% DMSO (dimethyl sulphoxide) content. Compound treatments were added to the cells for 1 hour prior incubation, followed by the addition of neocarzinostatin in fresh culture medium to 1 μg/mL final concentration for an additional 2 hours incubation to induce DNA DSBs (double-strand breaks). DMSO controls were incubated with fresh culture medium alone for the additional two hours incubation. The cells were then lysed and frozen at −20° C. Cell lysates were thawed on wet ice and protein concentrations quantified by BCA Protein Assay (Thermo #23225). Lysis buffer was used to normalize lysates by protein content and all lysates were then investigated by sandwich ELISA by means of DNA-PK-specific antibodies (Abcam ab44815: total DNA-PK; ab124918: phosphoserine-2056 DNA-PK) in sandwich ELISA format on the MSD S600MM platform (MesoScale Discovery). % inhibition was calculated for all data points: =1−(DATA_PT−AVERAGE(DMSO controls))/(AVERAGE(NCS controls)−AVERAGE(DMSO controls)). Logarithm of the molar concentration of compound was plotted against percent inhibition to calculate IC50 values, with curve fit settings for data fit to log(inhibitor) vs. normalized response—Variable slope using curve fit software (GraphPad Prism).

The mark [4] stands for this setting: 5% O2, inner layers, read-out: Prodrug 5% O2 Inner layers EC50.
Setting [5] is: 5% O2, outer layers, read-out: Prodrug 5% O2 Outer layers EC50.
[6] abbreviates: 20% O2, outer layers, read-out: Prodrug 20% O2 Outer layers EC50.

The record followed here is patent US20240239790A1, “7-Morpholino-1,6-Naphthyridin-5-yl Derivatives and Pharmaceutical Compositions Thereof Useful as DNA-PK Inhibitor” (adMare Therapeutics Society, priority 2021, published 2024).

Where two headings read alike, the source gives them in different places.

Broadly, the EC50 is the concentration needed to bring the measured effect to its halfway point. Regarding `Cn1c(Cn2nnc(-c3cnc4cc(N5CCOCC5)nc(O[C@H]5CC[C@@H](Nc6ncccn6)CC5)c4c3)n2)cnc1[N+](=O)[O-]` [LFA121, N-[4-[[3-[2-[(3-Methyl-2-nitro-imidazol-4-yl)methyl]tetrazol-5-yl]-7-morpholino-1,6-naphthyridin-5-yl]oxy]cyclohexyl]pyrimidin-2-amine], the figures for the half-maximal effective concentration (EC50) in data set [1] (setting [4]), in data set [1] (setting [5]) and in data set [1] (setting [6]) were 500 to 1000 nM, 1000 to 10000 nM and 1000 to 10000 nM, respectively. For the same compound, in data set [2], the “Fraction of prodrug converted to active form, Hypoxic 0.2% O2” value (“Fraction … Hypoxic 0.2% O2” for short) was “A (A is 0.15 to 1)”. The “Fraction of prodrug converted to active form, Oxic 5% O2” value (“Fraction … Oxic 5% O2” for short) in data set [2] is “B (B is 0.05 to 0.15)”.

On to `Cn1c(Cn2nnc(-c3cnc4cc(N5CCOCC5)nc(O[C@H]5CC[C@@H](n6ccnc6)CC5)c4c3)n2)cnc1[N+](=O)[O-]` [LFA123, 4-[5-(4-imidazol-1-ylcyclohexoxy)-3-[2-[(3-methyl-2-nitro-imidazol-4-yl)methyl]tetrazol-5-yl]-1,6-naphthyridin-7-yl]morpholine], for which the concentration for a half-maximal effect (EC50) in data set [1] (setting [4]), in data set [1] (setting [5]) and in data set [1] (setting [6]) was 1000 to 10000 nM each time. In addition, the “Fraction … Hypoxic 0.2% O2” value in data set [2] was “A (A is 0.15 to 1)”. Also, in data set [2], the “Fraction … Oxic 5% O2” value is recorded as “B (B is 0.05 to 0.15)”.

Consider `Cn1c(Cn2cnnc2-c2cnc3cc(N4CCOCC4)nc(OC4CCC(Nc5ncccn5)CC4)c3c2)cnc1[N+](=O)[O-]` (stereo not shown) [LFA135, N-[4-[[3-[4-[(3-Methyl-2-nitro-imidazol-4-yl)methyl]-1,2,4-triazol-3-yl]-7-morpholino-1,6-naphthyridin-5-yl]oxy]cyclohexyl]pyrimidin-2-amine], for which the EC50 in data set [1] (setting [4]), in data set [1] (setting [5]) and in data set [1] (setting [6]) was 1000 to 10000 nM throughout. The “Fraction … Hypoxic 0.2% O2” value in data set [2] was “D (D is 0 to 0.02)”. The “Fraction … Oxic 5% O2” value in data set [2] was “D (D is 0 to 0.02)”.

By IC50 is commonly meant the concentration at which inhibition is half-maximal. A high value points to weaker potency. `CS(=O)(=O)Nc1cnc2cc(N3CCOCC3)nc(O[C@H]3CC[C@@H](Nc4ncc(CCN5CCOCC5)cn4)CC3)c2c1` [LFA2030, N-[7-morpholino-5-[4-[[5-(2-morpholinoethyl)pyrimidin-2-yl]amino]cyclohexoxy]-1,6-naphthyridin-3-yl]methanesulfonamide]: in data set [3], the IC50 was below 100 nM.

`CN1CCN(CCc2cnc(N[C@H]3CC[C@@H](Oc4nc(N5CCOCC5)cc5ncc(NS(C)(=O)=O)cc45)CC3)nc2)CC1` [LFA2031, N-[5-[4-[[5-[2-(4-methylpiperazin-1-yl)ethyl]pyrimidin-2-yl]amino]cyclohexoxy]-7-morpholino-1,6-naphthyridin-3-yl]methanesulfonamide]: the IC50 in data set [3] was below 100 nM.

`CN1CCN(c2cnc(N[C@H]3CC[C@@H](Oc4nc(N5CCOCC5)cc5ncc(NS(C)(=O)=O)cc45)CC3)nc2)CC1` [LFA2032, N-[5-[4-[[5-(4-methylpiperazin-1-yl)pyrimidin-2-yl]amino]cyclohexoxy]-7-morpholino-1,6-naphthyridin-3-yl]methanesulfonamide] registered an IC50 in data set [3] below 100 nM.

In turn, `CN1CCC(Oc2cnc(N[C@H]3CC[C@@H](Oc4nc(N5CCOCC5)cc5ncc(O)cc45)CC3)nc2)C1` (stereo partly shown) [LFA2033, 5-[4-[[5-(1-methylpyrrolidin-3-yl)oxypyrimidin-2-yl]amino]cyclohexoxy]-7-morpholino-1,6-naphthyridin-3-ol] returned an IC50 in data set [3] below 100 nM.

Turning to `CN1CCN(CCOc2cnc(N[C@H]3CC[C@@H](Oc4nc(N5CCOCC5)cc5ncc(O)cc45)CC3)nc2)CC1` [LFA2034, 5-[4-[[5-[2-(4-methylpiperazin-1-yl)ethoxy]pyrimidin-2-yl]amino]cyclohexoxy]-7-morpholino-1,6-naphthyridin-3-ol], in data set [3], the IC50 was below 100 nM.

Take `Oc1cnc2cc(N3CCOCC3)nc(O[C@H]3CC[C@@H](Nc4ncc(OCCN5CCOCC5)cn4)CC3)c2c1` [LFA2035, 7-morpholino-5-[4-[[5-(2-morpholinoethoxy)pyrimidin-2-yl]amino]cyclohexoxy]-1,6-naphthyridin-3-ol]: the IC50 in data set [3] was below 100 nM.

For the compound `CN1CC[C@H](Oc2cnc(N[C@H]3CC[C@@H](Oc4nc(N5CCOCC5)cc5ncc(NS(C)(=O)=O)cc45)CC3)nc2)C1` [LFA2036, N-[5-[4-[[5-[(3S)-1-methylpyrrolidin-3-yl]oxypyrimidin-2-yl]amino]cyclohexoxy]-7-morpholino-1,6-naphthyridin-3-yl] methanesulfonamide], the IC50 in data set [3] is below 100 nM.

`CN1CC[C@@H](Oc2cnc(N[C@H]3CC[C@@H](Oc4nc(N5CCOCC5)cc5ncc(NS(C)(=O)=O)cc45)CC3)nc2)C1` [LFA2037, N-[5-[4-[[5-[(3R)-1-methylpyrrolidin-3-yl]oxypyrimidin-2-yl]amino]cyclohexoxy]-7-morpholino-1,6-naphthyridin-3-yl] methanesulfonamide] yielded a 50% inhibitory concentration (IC50) in data set [3] below 100 nM.

As to `Cc1nc(N[C@H]2CC[C@@H](Oc3nc(N4CCOCC4)cc4ncc(NS(C)(=O)=O)cc34)CC2)ncc1N1CCN(C)CC1` [LFA2038, N-[5-[4-[[4-methyl-5-(4-methylpiperazin-1-yl)pyrimidin-2-yl]amino]cyclohexoxy]-7-morpholino-1,6-naphthyridin-3-yl]methanesulfonamide], the 50% inhibitory concentration (IC50) in data set [3] was below 100 nM.

In turn, `Cc1nc(N[C@H]2CC[C@@H](Oc3nc(N4CCOCC4)cc4ncc(NS(C)(=O)=O)cc34)CC2)ncc1OCCN1CCN(C)CC1` [LFA2039, N-[5-[4-[[4-methyl-5-[2-(4-methylpiperazin-1-yl)ethoxy]pyrimidin-2-yl]amino]cyclohexoxy]-7-morpholino-1,6-naphthyridin-3-yl]methanesulfonamide] returned an IC50 in data set [3] below 100 nM.

`Cc1nc(N[C@H]2CC[C@@H](Oc3nc(N4CCOCC4)cc4ncc(NS(C)(=O)=O)cc34)CC2)ncc1OCCN1CCOCC1` [LFA2040, N-[5-[4-[[4-methyl-5-(2-morpholinoethoxy)pyrimidin-2-yl]amino]cyclohexoxy]-7-morpholino-1,6-naphthyridin-3-yl]methanesulfonamide] registered an IC50 in data set [3] below 100 nM.

In data set [3], `CN1CCc2nc(N[C@H]3CC[C@@H](Oc4nc(N5CCOCC5)cc5ncc(O)cc45)CC3)ncc2C1` [LFA2078, 5-[4-[(6-methyl-7,8-dihydro-5H-pyrido[4,3-d]pyrimidin-2-yl)amino]cyclohexoxy]-7-morpholino-1,6-naphthyridin-3-ol] came in with an IC50 below 100 nM.

`CN(C)CCOc1cnc(N[C@H]2CC[C@@H](Oc3nc(N4CCOCC4)cc4ncc(O)cc34)CC2)nc1` [LFA2079, 5-[4-[[5-[2-(dimethylamino)ethoxy]pyrimidin-2-yl]amino]cyclohexoxy]-7-morpholino-1,6-naphthyridin-3-ol] came in with a concentration for half-maximal inhibition (IC50) in data set [3] below 100 nM.

Turning to `CN1CCN(c2cnc(N[C@H]3CC[C@@H](Oc4nc(N5CCOCC5)cc5ncc(O)cc45)CC3)nc2)CC1` [LFA2080, 5-[4-[[5-(4-methylpiperazin-1-yl)pyrimidin-2-yl]amino]cyclohexoxy]-7-morpholino-1,6-naphthyridin-3-ol], the IC50 in data set [3] was below 100 nM.

In the case of `Cn1c(COc2cnc3cc(N4CCOCC4)nc(O[C@H]4CC[C@@H](Nc5nccnc5C#N)CC4)c3c2)cnc1[N+](=O)[O-]` [LFA2095, 3-[[4-[[3-[(3-methyl-2-nitro-imidazol-4-yl)methoxy]-7-morpholino-1,6-naphthyridin-5-yl]oxy]cyclohexyl]amino]pyrazine-2-carbonitrile], the IC50 in data set [3] was 10000 to 30000 nM.

In data set [3], `CC(Oc1cnc2cc(N3CCOCC3)nc(O[C@H]3CC[C@@H](Nc4cncc(C(F)(F)F)n4)CC3)c2c1)c1cnc([N+](=O)[O-])n1C` (stereo partly shown) [LFA2096, N-[4-[[3-[1-(3-methyl-2-nitro-imidazol-4-yl)ethoxy]-7-morpholino-1,6-naphthyridin-5-yl]oxy]cyclohexyl]-6-(trifluoromethyl)pyrazin-2-amine] came in with an IC50 of 10000 to 30000 nM.
